In assay [1] the target is muscarinic receptors. Put plainly: Radio ligand binding, displacement of muscarinic agonist 3H-Oxotremorine-M (3H-OXO-M), rat cerebral cortex membranes. Details: species or system Hooded Lister rats. To be noted: 2 nM 3H-OXO-M, 2 mM magnesium chloride, tris pH 7.7, 37° C., 30 min.
Assay [2] concerns the target muscarinic receptors. Put plainly: Radio ligand binding, displacement of muscarinic antagonist 3H-Quinuclidinyl Benzilate (3H-QNB), rat cerebral cortex membranes. Details: species or system Hooded Lister rats. To be noted: 0.27 nM 3H-QNB, tris pH 7.7, 37° C., 30 min.

Structures can show the parent of a compound that is named as a salt.

A word on the IC50: it is the concentration that inhibits the measured activity by half. A higher IC50 goes with lower potency.

In the case of `c1nnn(C23CCCN(CC2)C3)n1` (stereo not shown) [E29, 5-(Tetrazol-2-yl)-1-azabicyclo[3.2.1]octane], the IC50 came to 0.022 µM at muscarinic receptors [1] and 12.8 µM on muscarinic receptors [2].

`c1ncn(C23CCN(CC2)C3)n1` [E51, 4-(1,2,4-Triazol-1-yl)-1-azabicyclo[2.2.1]heptane oxalate salt]: the IC50 is 0.0165 µM at muscarinic receptors [1] and 65.2 µM on muscarinic receptors [2].

For the origin of these results see patent publication US5981545A, “N-linked azabicyclic heterocycles useful for treating dementia” (Beecham Group p.l.c., priority 1989, dated 1999).
